Activity calls are given as the source filed them. No cut-off for these calls is given here.
Key:
[1] = molecular target: T1, von Hippel-Lindau disease tumor suppressor/Tyrosine-protein phosphatase non-receptor type 2 (Homo sapiens, UniProt P17706+P40337); test: PROTAC activity at VHL/PTPN2 in human Jurkat cells assessed as induction of PTPN2 degradation at 100 nM by Western blot analysis relative to control; assay type: cell-based
Target sequence in this assay (P17706 whole entry, looked up): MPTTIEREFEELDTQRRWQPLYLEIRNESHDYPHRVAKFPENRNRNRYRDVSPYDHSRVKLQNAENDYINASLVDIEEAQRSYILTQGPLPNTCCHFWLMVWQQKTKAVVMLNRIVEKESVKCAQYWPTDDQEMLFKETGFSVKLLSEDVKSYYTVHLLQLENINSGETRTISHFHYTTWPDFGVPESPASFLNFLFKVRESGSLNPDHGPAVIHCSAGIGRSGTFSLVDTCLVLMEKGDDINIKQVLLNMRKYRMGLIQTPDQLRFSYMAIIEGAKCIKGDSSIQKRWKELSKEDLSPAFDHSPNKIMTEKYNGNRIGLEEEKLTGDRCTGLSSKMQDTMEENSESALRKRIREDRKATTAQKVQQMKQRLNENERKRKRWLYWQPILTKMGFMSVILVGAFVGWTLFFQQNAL
Target sequence in this assay (P40337 whole entry, looked up): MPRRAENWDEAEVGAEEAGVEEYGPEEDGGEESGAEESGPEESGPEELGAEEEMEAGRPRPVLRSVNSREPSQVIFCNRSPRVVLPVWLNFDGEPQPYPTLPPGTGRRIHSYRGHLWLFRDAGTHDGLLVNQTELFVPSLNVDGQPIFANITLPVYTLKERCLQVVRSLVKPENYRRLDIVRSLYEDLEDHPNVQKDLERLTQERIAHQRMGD

[2] = molecular target: T1, von Hippel-Lindau disease tumor suppressor/Tyrosine-protein phosphatase non-receptor type 2; test: PROTAC activity at VHL/PTPN2 in human Jurkat cells assessed as induction of PTPN2 degradation at 10 uM by Western blot analysis relative to control; assay type: cell-based
Target sequence in this assay (P17706 whole entry, looked up): as the sequence (P17706 whole entry, looked up) above
Target sequence in this assay (P40337 whole entry, looked up): as the sequence (P40337 whole entry, looked up) above

[3] = molecular target: T1, von Hippel-Lindau disease tumor suppressor/Tyrosine-protein phosphatase non-receptor type 2; test: PROTAC activity at VHL/PTPN2 in human Jurkat cells assessed as induction of PTPN2 degradation at 1 uM by Western blot analysis relative to control; assay type: cell-based
Target sequence in this assay (P17706 whole entry, looked up): as the sequence (P17706 whole entry, looked up) above
Target sequence in this assay (P40337 whole entry, looked up): as the sequence (P40337 whole entry, looked up) above

Splenocyte = test: Induction of cell proliferation in anti-CD3/CD28-stimulated mouse splenocytes at 0.625 to 10 uM incubated for 3 days by CFSE dye based flow cytometry; assay type: functional; conditions: dose 0.625-10 µM, time 3.0 day
[4] = molecular target: Protein cereblon/Tyrosine-protein phosphatase non-receptor type 2 (Homo sapiens) (UniProt P17706+Q96SW2); test: PROTAC activity at CRBN/PTPN2 in human Jurkat cells assessed as induction of PTPN2 degradation at 0.01 to 10 uM by Western blot analysis; assay type: cell-based; conditions: dose 0.01-10 µM
Protein cereblon/Tyrosine-protein phosphatase non-receptor type 2 (Homo sapiens), sequence (P17706 whole entry, looked up): as the sequence (P17706 whole entry, looked up) above
Protein cereblon/Tyrosine-protein phosphatase non-receptor type 2 (Homo sapiens), sequence (Q96SW2 whole entry, looked up): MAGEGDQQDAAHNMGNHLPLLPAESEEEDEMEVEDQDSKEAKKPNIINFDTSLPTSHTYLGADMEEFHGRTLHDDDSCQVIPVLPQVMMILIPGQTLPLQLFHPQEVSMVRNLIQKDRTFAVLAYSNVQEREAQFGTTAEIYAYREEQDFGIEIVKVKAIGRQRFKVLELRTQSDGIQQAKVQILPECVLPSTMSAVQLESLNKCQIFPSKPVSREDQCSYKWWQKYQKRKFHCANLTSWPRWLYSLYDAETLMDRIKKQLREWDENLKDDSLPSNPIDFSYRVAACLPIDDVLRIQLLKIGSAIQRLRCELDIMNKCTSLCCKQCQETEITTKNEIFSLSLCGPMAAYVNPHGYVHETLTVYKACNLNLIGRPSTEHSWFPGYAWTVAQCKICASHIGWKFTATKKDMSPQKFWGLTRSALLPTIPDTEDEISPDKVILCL

[5] = molecular target: von Hippel-Lindau disease tumor suppressor/Tyrosine-protein phosphatase non-receptor type 1 (Homo sapiens, UniProt P18031+P40337); test: PROTAC activity at VHL/PTP1B in human Jurkat cells assessed as induction of PTP1B degradation by Western blot analysis; assay type: cell-based
von Hippel-Lindau disease tumor suppressor/Tyrosine-protein phosphatase non-receptor type 1, sequence (P18031 whole entry): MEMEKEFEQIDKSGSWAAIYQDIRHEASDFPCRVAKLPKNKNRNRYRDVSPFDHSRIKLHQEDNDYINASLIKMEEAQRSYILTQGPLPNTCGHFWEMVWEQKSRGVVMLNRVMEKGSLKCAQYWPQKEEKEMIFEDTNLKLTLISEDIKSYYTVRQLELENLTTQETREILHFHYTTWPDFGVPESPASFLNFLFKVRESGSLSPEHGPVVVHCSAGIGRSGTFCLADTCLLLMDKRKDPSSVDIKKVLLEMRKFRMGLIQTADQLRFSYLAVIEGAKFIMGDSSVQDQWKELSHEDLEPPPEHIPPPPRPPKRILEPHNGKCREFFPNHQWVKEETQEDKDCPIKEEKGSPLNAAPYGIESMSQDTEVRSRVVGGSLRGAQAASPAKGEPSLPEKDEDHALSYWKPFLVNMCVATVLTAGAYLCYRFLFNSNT
von Hippel-Lindau disease tumor suppressor/Tyrosine-protein phosphatase non-receptor type 1, sequence (P40337 whole entry): as the sequence (P40337 whole entry, looked up) above

[6] = molecular target: T1, von Hippel-Lindau disease tumor suppressor/Tyrosine-protein phosphatase non-receptor type 2; test: PROTAC activity at VHL/PTPN2 in human Jurkat cells assessed as induction of PTPN2 degradation by Western blot analysis; assay type: cell-based
Target sequence in this assay (P17706 whole entry): as the sequence (P17706 whole entry, looked up) above
Target sequence in this assay (P40337 whole entry): as the sequence (P40337 whole entry, looked up) above

[7] = molecular target: T1, von Hippel-Lindau disease tumor suppressor/Tyrosine-protein phosphatase non-receptor type 2; test: PROTAC activity at VHL/PTPN2 in human Jurkat cells assessed as residual activity of PTPN2 level at 1 uM by Western blot analysis relative to control; assay type: cell-based
Target sequence in this assay (P17706 whole entry, looked up): as the sequence (P17706 whole entry, looked up) above
Target sequence in this assay (P40337 whole entry, looked up): as the sequence (P40337 whole entry, looked up) above

Row | SMILES | Activity [1] [%] | Activity [2] [%] | Activity [3] [%] | other results
1 | Cc1ncsc1-c1ccc([C@H](C)NC(=O)[C@@H]2C[C@@H](O)CN2C(=O)[C@@H](NC(=O)CCNC2CCN(C(=O)Cn3cc(-c4ccc5cc(O)c(N6CC(=O)NS6(=O)=O)c(F)c5c4)cn3)CC2)C(C)(C)C)cc1 | 15 | 85 | 35 | –
2 | Cc1ncsc1-c1ccc([C@H](C)NC(=O)[C@@H]2C[C@@H](O)CN2C(=O)[C@@H](NC(=O)CCCNC(=O)Cn2cc(-c3ccc4cc(O)c(N5CC(=O)NS5(=O)=O)c(F)c4c3)cn2)C(C)(C)C)cc1 | 26 | 98 | 81 | –
3 | Cc1ncsc1-c1ccc([C@H](C)NC(=O)[C@@H]2C[C@@H](Oc3ccccc3)CN2C(=O)[C@@H](NC(=O)CCCCCNC(=O)Cn2cc(-c3ccc4cc(O)c(N5CC(=O)NS5(=O)=O)c(F)c4c3)cn2)C(C)(C)C)cc1 | – | – | – | Activity (Splenocyte): inactive
4 | Cc1ncsc1-c1ccc([C@H](C)NC(=O)[C@@H]2C[C@@H](O)CN2C(=O)[C@@H](NC(=O)CCCCCCCCNC(=O)Cn2cc(-c3ccc4cc(O)c(N5CC(=O)NS5(=O)=O)c(F)c4c3)cn2)C(C)(C)C)cc1 | 27 | 94 | 60 | –
5 | Cc1ncsc1-c1ccc([C@H](C)NC(=O)[C@@H]2C[C@@H](O)CN2C(=O)[C@@H](NC(=O)CCCCNC(=O)Cn2cc(-c3ccc4cc(O)c(N5CC(=O)NS5(=O)=O)c(F)c4c3)cn2)C(C)(C)C)cc1 | 29 | 92 | 77 | –
6 | Cn1c(=O)n(C2CCC(=O)NC2=O)c2ccc(C3CCN(C(=O)Cn4cc(-c5ccc6cc(O)c(N7CC(=O)NS7(=O)=O)c(F)c6c5)cn4)CC3)cc21 (centres undefined) | – | – | – | Activity [4]: Active
7 | O=C(Cn1cc(-c2ccc3cc(O)c(N4CC(=O)NS4(=O)=O)c(F)c3c2)cn1)NCCCCNc1cccc2c1C(=O)N(C1CCC(=O)NC1=O)C2=O (centres undefined) | – | – | – | Activity [4]: Active
8 | O=C(Cn1cc(-c2ccc3cc(O)c(N4CC(=O)NS4(=O)=O)c(F)c3c2)cn1)NCCCCCNc1cccc2c1C(=O)N(C1CCC(=O)NC1=O)C2=O (centres undefined) | – | – | – | Activity [4]: Active
9 | Cc1ncsc1-c1ccc([C@H](C)NC(=O)[C@@H]2C[C@@H](O)CN2C(=O)[C@@H](NC(=O)CNC(=O)Cn2cc(-c3ccc4cc(O)c(N5CC(=O)NS5(=O)=O)c(F)c4c3)cn2)C(C)(C)C)cc1 | -18 | 91 | 33 | –
10 | Cc1ncsc1-c1ccc([C@H](C)NC(=O)[C@@H]2C[C@@H](O)CN2C(=O)[C@@H](NC(=O)c2cn(CCCNC(=O)Cn3cc(-c4ccc5cc(O)c(N6CC(=O)NS6(=O)=O)c(F)c5c4)cn3)nn2)C(C)(C)C)cc1 | -2 | 62 | 2 | –
11 | Cc1ncsc1-c1ccc([C@H](C)NC(=O)[C@@H]2C[C@@H](O)CN2C(=O)[C@@H](NC(=O)Cn2cc(-c3ccc4cc(O)c(N5CC(=O)NS5(=O)=O)c(F)c4c3)cn2)C(C)(C)C)cc1 | -3 | -53 | -8 | –
12 | Cc1ncsc1-c1ccc([C@H](C)NC(=O)[C@@H]2C[C@@H](O)CN2C(=O)[C@@H](NC(=O)CCCCCCNC(=O)Cn2cc(-c3ccc4cc(O)c(N5CC(=O)NS5(=O)=O)c(F)c4c3)cn2)C(C)(C)C)cc1 | 40 | 99 | 84 | EC50 [5]: 142 nM; EC50 [6]: 94 nM
13 | Cc1ncsc1-c1ccc([C@H](C)NC(=O)[C@@H]2C[C@@H](O)CN2C(=O)[C@@H](NC(=O)CCNC(=O)Cn2cc(-c3ccc4cc(O)c(N5CC(=O)NS5(=O)=O)c(F)c4c3)cn2)C(C)(C)C)cc1 | -1 | 96 | 57 | –
14 | O=C(Cn1cc(-c2ccc3cc(O)c(N4CC(=O)NS4(=O)=O)c(F)c3c2)cn1)NCCCNc1cccc2c1C(=O)N(C1CCC(=O)NC1=O)C2=O (centres undefined) | – | – | – | Activity [4]: Active
15 | Cn1c(=O)n(C2CCC(=O)NC2=O)c2ccc(C3CCN(CCn4cc(-c5ccc6cc(O)c(N7CC(=O)NS7(=O)=O)c(F)c6c5)cn4)CC3)cc21 (centres undefined) | – | – | – | Activity [4]: Active
16 | Cc1ncsc1-c1ccc([C@H](C)NC(=O)[C@@H]2C[C@@H](O)CN2C(=O)[C@@H](NC(=O)CCCCCCCNC(=O)Cn2cc(-c3ccc4cc(O)c(N5CC(=O)NS5(=O)=O)c(F)c4c3)cn2)C(C)(C)C)cc1 | 37 | 99 | 84 | EC50 [5]: 758 nM; EC50 [6]: 77 nM
17 | Cc1ncsc1-c1ccc([C@H](C)NC(=O)[C@@H]2C[C@@H](O)CN2C(=O)[C@@H](NC(=O)CCCCCCCCCCNC(=O)Cn2cc(-c3ccc4cc(O)c(N5CC(=O)NS5(=O)=O)c(F)c4c3)cn2)C(C)(C)C)cc1 | 4 | 98 | 71 | EC50 [5]: 2000 nM; EC50 [6]: 571 nM
18 | Cc1ncsc1-c1ccc([C@H](C)NC(=O)[C@@H]2C[C@@H](O)CN2C(=O)[C@@H](NC(=O)CNC2CCN(C(=O)Cn3cc(-c4ccc5cc(O)c(N6CC(=O)NS6(=O)=O)c(F)c5c4)cn3)CC2)C(C)(C)C)cc1 | -17 | 99 | 72 | Activity [7]: 20%
